# According to patent US9763942B2, “Serine/threonine kinase inhibitors” (Array BioPharma Inc., priority 2013, dated 2017):
# Molecular target: T1, human ERK-2 (Mitogen Activated Kinase 1) (Homo sapiens, UniProt P28482)
# T1 construct: n-terminal 6-His fusion protein in E. coli and corresponding to aa 8-360; 6-His (N); made in house; host or cells: E. coli
# Assay: ERK-2 Enzymatic Assay
# Assay type: biochemical
# Details: ERK-2 enzymatic assay; read-out: IC50
# Text: Table 1 contains representative data for Examples disclosed herein.
# T1 sequence (P28482 8-360): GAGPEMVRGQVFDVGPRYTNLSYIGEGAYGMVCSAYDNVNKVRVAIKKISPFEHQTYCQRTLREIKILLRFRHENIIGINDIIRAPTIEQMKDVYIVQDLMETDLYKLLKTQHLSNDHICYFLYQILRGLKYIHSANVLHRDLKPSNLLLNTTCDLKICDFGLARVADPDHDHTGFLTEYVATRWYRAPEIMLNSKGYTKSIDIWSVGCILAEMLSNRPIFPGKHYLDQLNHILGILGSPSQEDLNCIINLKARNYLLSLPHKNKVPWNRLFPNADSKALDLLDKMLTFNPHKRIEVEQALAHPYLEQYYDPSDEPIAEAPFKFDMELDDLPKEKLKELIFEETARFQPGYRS
row,IC50 [nM],SMILES
1,< 100,"COc1ccc(Cn2nnc3cc(-c4ccnc(Nc5cnn(C)c5)n4)ccc32)cc1F [Example 2, 4-(1-(3-fluoro-4-methoxybenzyl)-1H-benzo[d][1,2,3]triazol-5-yl)-N-(1-methyl-1H-pyrazol-4-yl)pyrimidin-2-amine]"
2,< 100,"Cn1nccc1Nc1nccc(-c2ccc3c(c2)nnn3CCc2ccc(Cl)cc2)n1 [Example 3, 4-(1-(4-chlorophenethyl)-1H-benzo[d][1,2,3]triazol-5-yl)-N-(1-methyl-1H-pyrazol-5-yl)pyrimidin-2-amine]"
3,< 100,"COc1ccc(Cn2nnc3cc(-c4ccnc(N[C@H]5CCOC[C@H]5F)n4)ccc32)cc1F [Example 7, 4-(1-(3-fluoro-4-methoxybenzyl)-1H-benzo[d][1,2,3]triazol-5-yl)-N-((3S,4S)-3-fluorotetrahydro-2H-pyran-4-yl)pyrimidin-2-amine]"
4,< 100,"COc1ccc(Cn2nnc3cc(-c4ccnc(Nc5cnn(C)n5)n4)ccc32)cc1F [Example 9, 4-(1-(3-fluoro-4-methoxybenzyl)-1H-benzo[d][1,2,3]triazol-5-yl)-N-(2-methyl-2H-1,2,3-triazol-4-yl)pyrimidin-2-amine]"
5,< 100,"COc1ccc(Cn2nnc3cc(-c4ccnc(NC5COC5)n4)ccc32)cc1F [Example 10, 4-(1-(3-fluoro-4-methoxybenzyl)-1H-benzo[d][1,2,3]triazol-5-yl)-N-(oxetan-3-yl)pyrimidin-2-amine]"
6,< 100,"COc1ccc(Cn2nnc3cc(-c4ccnc(Nc5nnc(C)s5)n4)ccc32)cc1F [Example 11, N-(4-(1-(3-fluoro-4-methoxybenzyl)-1H-benzol[d][1,2,3]triazol-5-yl)pyrimidin-2-yl)-5-methyl-1,3,4-thiadiazol-2-amine]"
7,< 100,"COc1ccc(Cn2nnc3cc(-c4ccnc(NC5CCC5)n4)ccc32)cc1F [Example 12, N-cyclobutyl-4-(1-(3-fluoro-4-methoxybenzyl)-1H-benzo[d][1,2,3]triazol-5-yl)pyrimidin-2-amine]"
8,< 100,"COc1ccc(Cn2nnc3cc(-c4ccnc(NC(C)C)n4)ccc32)cc1F [Example 13, 4-(1-(3-fIuoro-4-methoxybenzyl)-1H-benzo[d][1,2,3]triazol-5-yl)-N-isopropylpyrimidin-2-amine]"
9,< 100,"COc1ccc(Cn2nnc3cc(-c4ccnc(NCC5CC5)n4)ccc32)cc1F [Example 14, N-(cyclopropylmethyl)-4-(1-(3-fluoro-4-methoxybenzyl)-1H-benzo[d][1,2,3]triazol-5-yl)pyrimidin-2-amine]"
10,< 100,"COc1ccc(Cn2nnc3cc(-c4ccnc(NC5CC5)n4)ccc32)cc1F [Example 15, N-cyclopropyl-4-(1-(3-fluoro-4-methoxybenzyl)-1H-benzo[d][1,2,3]triazol-5-yl)pyrimidin-2-amine]"
11,< 100,COc1ccc(Cn2nnc3cc(-c4ccnc(NCC(C)(C)CO)n4)ccc32)cc1F [Example 16]
12,< 100,"COc1ccc(Cn2nnc3cc(-c4ccnc(NCC5COC5)n4)ccc32)cc1F [Example 17, 4-(1-(3-fluoro-4-methoxybenzyl)-1H-benzo[d][1,2,3]triazol-5-yl)-N-(oxetan-3-ylrnethyl)pyrimidin-2-amine]"
13,< 100,"COc1ccc(Cn2nnc3cc(-c4ccnc(NCC(C)(C)O)n4)ccc32)cc1F [Example 18, 1-((4-(1-(3-fluoro-4-methoxybenzyl)-1H-benzo[d][1,2,3]triazol-5-yl)pyrimidin-2-yl)amino)-2-methylpropan-2-ol]"
14,< 100,"COc1ccc(Cn2nnc3cc(-c4ccnc(N[C@@H](C)CO)n4)ccc32)cc1F [Example 19, (S)-2-((4-(1-(3-fluoro-4-methoxybenzyl)-1H-benzo[d][1,2,3]triazol-5-yl)pyrimidin-2-yl)amino)propan-1-ol]"
15,< 100,"COc1ccc(Cn2nnc3cc(-c4ccnc(NC[C@@H](O)CO)n4)ccc32)cc1F [Example 20, (R)-3-((4-(1-(3-fluoro-4-methoxybenzyl)-1H-benzo[d][1,2,3]triazol-5-yl)pyrimidin-2-yl)amino)propane-1,2-diol]"
16,< 100,"COc1ccc(Cn2nnc3cc(-c4ccnc(NC5(C)COC5)n4)ccc32)cc1F [Example 21, 4-(1-(3-fluoro-4-methoxybenzyl)-1H-benzo[d][1,2,3]triazol-5-yl)-N-(3-methyloxetan-3-yl)pyrimidin-2-amine]"
17,< 100,"COc1ccc(Cn2nnc3cc(-c4ccnc(NC(C)(C)CN5CCOCC5)n4)ccc32)cc1F [Example 23, 4-(1-(3-fluoro-4-methoxybenzyl)-1H-benzo[d][1,2,3]triazol-5-yl)-N-(2-methyl-1-morpholinopropan-2-yl)pyrimidin-2-amine]"
18,< 100,"COc1ccc(Cn2nnc3cc(-c4ccnc(Nc5nnnn5C)n4)ccc32)cc1F [Example 24, 4-(1-(3-fluoro-4-methoxybenzyl)-1H-benzo[d][1,2,3]triazol-5-yl)-N-(1-methyl-1H-tetrazol-5-yl)pyrimidin-2-amine]"
19,< 100,"COc1ccc(Cn2nnc3cc(-c4ccnc(Nc5cc(C6CC6)nn5C)n4)ccc32)cc1F [Example 25, N-(3-cyclopropyl-1-methyl-1H-pyrazol-5-yl)-4-(1-(3-fluoro-4-methoxybenzyl)-1H-benzoyl[d][1,2,3]triazol-5-yl)pyrimidin-2-amine]"

row,IC50 [nM],SMILES
1,< 100,"COc1ccc(Cn2nnc3cc(-c4ccnc(Nc5nnn(C)n5)n4)ccc32)cc1F [Example 26, 4-(1-(3-fluoro-4-methoxybenzyl)-1H-benzoyl[d][1,2,3]triazol-5-yl)-N-(2-methyl-2H-tetrazol-5-yl)pyrimidin-2-amine]"
2,< 100,CCC(C)Cn1nnc2cc(-c3ccnc(Nc4ccnn4C)n3)ccc21 (stereo not shown) [Example 27]
3,< 100,"CCC(CC)Cn1nnc2cc(-c3ccnc(Nc4ccnn4C)n3)ccc21 [Example 28, 4-(1-(2-ethylbutyl)-1H-benzo[d][1,2,3]triazol-5-yl)-N(1-methyl-1H-pyrazol-5-yl)pyrimidin-2-amine]"
4,< 100,"Cn1nccc1Nc1nccc(-c2ccc3c(c2)nnn3CC2CCCC2)n1 [Example 29, 4-(1-(cyclopentylmethyl)-1H-benzo[d][1,2,3]triazol-5-yl)-N-(1-methyl-1H-pyrazol-5-yl)pyrimidin-2-amine]"
5,< 100,"COC(C)Cn1nnc2cc(-c3ccnc(Nc4ccnn4C)n3)ccc21 (stereo not shown) [Example 30, 4-(1-(2-methoxypropyl)-1H-benzo[d][1,2,3]triazol-5-yl)-N-(1-methyl-1H-pyrazol-5-yl)pyrimidin-2-amine]"
6,< 100,"Cn1nccc1Nc1nccc(-c2ccc3c(c2)nnn3CC(C)(F)F)n1 [Example 31, 4-(1-(2,2-difluoropropyl)-1H-benzo[d][1,2,3]triazol-5-yl)-N-(1-methyl-1H-pyrazol-5-yl)pyrimidin-2-amine]"
7,< 100,"Cn1ccc(Cn2nnc3cc(-c4ccnc(Nc5ccnn5C)n4)ccc32)n1 [Example 32, 4-(1-((1-methyl-1H-pyrazol-3-yl)methyl)-1H-benzo[d][1,2,3]triazol-5-yl)-N-(1-methyl-1H-pyrazol-5-yl)pyrimidin-2-amine]"
8,< 100,"Cn1nccc1Nc1nccc(-c2ccc3c(c2)nnn3CC2CC(F)(F)C2)n1 [Example 34, 4-(1-((3,3-difluorocyclobutyl)methyl)-1H-benzo[d][1,2,3]triazol-5-yl)-N-(1-methyl-1H-pyrazol-5-yl)pyrimidin-2-amine]"
9,< 100,"CN1CC(Cn2nnc3cc(-c4ccnc(Nc5ccnn5C)n4)ccc32)C1 [Example 36, N-(1-methyl-1H-pyrazol-5-yl)-4-(1-((1-methylazetidin-3-yl)methyl)-1H-benzo[d][1,2,3]triazol-5-yl)pyrimidin-2-amine]"
10,< 100,"Cn1nccc1Nc1nccc(-c2ccc3c(c2)nnn3CC(F)F)n1 [Example 37, 4-(1-(2,2-difluoroethyl)-1H-benzo[d][1,2,3]triazol-5-yl)-N-(1-methyl-1H-pyrazol-5-yl)pyrimidin-2-amine]"
11,< 100,"CC(C)Cn1nnc2cc(-c3ccnc(Nc4ccnn4C)n3)ccc21 [Example 38, 4-(1-isobutyl-1H-benzo[d][1,2,3]triazol-5-yl)-N-(1-methyl-1H-pyrazol-5-yl)pyrimidin-2-amine]"
12,< 100,"Cn1nccc1Cn1nnc2cc(-c3ccnc(Nc4ccnn4C)n3)ccc21 [Example 39, N-(1-methyl-1H-pyrazol-5-yl)-4-(1-((1-methyl-1H-pyrazol-5-yl)methyl)-1H-benzo[d][1,2,3]triazol-5-yl)pyrimidin-2-amine]"
13,< 100,"Cn1nccc1Nc1nccc(-c2ccc3c(c2)nnn3CCCF)n1 [Example 40, 4-(1-(3-fluoropropyl)-1H-benzo[d][1,2,3]triazol-5-yl)-N-(1-methyl-1H-pyrazol-5-yl)pyrimidin-2-amine]"
14,< 100,"CC(O)CCn1nnc2cc(-c3ccnc(Nc4ccnn4C)n3)ccc21 (stereo not shown) [Example 41, 4-(5-(2-((1-methyl-1H-pyrazol-5-yl)amino)pyrimidin-4-yl)-1H-benzo[d][1,2,3]triazol-1-yl)butan-2-ol]"
15,< 100,"COCCCn1nnc2cc(-c3ccnc(Nc4ccnn4C)n3)ccc21 [Example 42, 4-(1-(3-methoxypropyl)-1H-benzo[d][1,2,3]triazol-5-yl)-N-(1-methyl-1H-pyrazol-5-yl)pyrimidin-2-amine]"
16,< 100,"COC(C)(C)Cn1nnc2cc(-c3ccnc(Nc4ccnn4C)n3)ccc21 [Example 44, 4-(1-(2-methoxy-2-methylpropyl)-1H-benzo[d][1,2,3]triazol-5-yl)-N-(1-methyl-1H-pyrazol-5-yl)pyrimidin-2-amine]"
17,< 100,"CCOCC1(Cn2nnc3cc(-c4ccnc(Nc5ccnn5C)n4)ccc32)CC1 [Example 45, 4-(1-((1-(ethoxymethyl)cyclopropyl)methyl)-1H-benzo[d][1,2,3]triazol-5-yl)-N-(1-methyl-1H-pyrazol-5-yl)pyrimidin-2-amine]"
18,< 100,"COCC(C)(C)Cn1nnc2cc(-c3ccnc(Nc4ccnn4C)n3)ccc21 [Example 46, 4-(1-(3-methoxy-2,2-dimethylpropyl)-1H-benzo[d][1,2,3]triazol-5-yl)-N-(1-methyl-1H-pyrazol-5-yl)pyrimidin-2-amine]"
